In PMC2009657, “Mammalian cell transformation in vitro. Six tests for carcinogenicity” (British Journal of Cancer, 1978):

Test system: tester cells of the transformation assay
Details: not given

Molecule | Toxicity in the assay
C=CCl [Vinyl chloride] | No toxicity observe(d

Test system: not given
Details: in vivo; cited from earlier work

Molecule | Carcinogenicity, Lit.
CCN(CC)N=O [Diethylnitrosamine] | +
Nc1ccc(N=Nc2ccccc2)cc1 [4-Aminoazobenzene] | +
CCOS(C)(=O)=O [Ethyl methanesulphonate] | +
COc1ccc(N)cc1 [p-Anisidine] | -
c1ccc2cc(Nc3ccc(Nc4ccc5ccccc5c4)cc3)ccc2c1 [N,N'-Bis(2-naphthyl)-p-phenylenediamine] | -
Nc1ccc(-c2ccc(N)c(Cl)c2)cc1Cl [3,3'-Dichlorobenzidine] | +
O=C(O)COc1ccc(Cl)cc1Cl [2,4-Dichlorophenoxyacetate] | -
c1ccc2c(c1)ccc1cc3ccc4ccccc4c3nc12 [3,4,5,6-Dibenzacridine] | +
ClC1=C(Cl)[C@]2(Cl)[C@@H]3[C@@H]4C[C@@H]([C@H]5O[C@@H]45)[C@@H]3[C@@]1(Cl)C2(Cl)Cl [Dieldrin] | -
O=P1(N(CCCl)CCCl)NCCCO1 (stereo not shown) [Cyclophosphamide] | +
CC(=O)Nc1cccc2c1-c1ccccc1C2 [4-Acetylaminofluorene] | -
c1ccc2cc3c(ccc4ccccc43)cc2c1 [1,2-Benzanthracene] | +
Nc1ccc(Cc2ccc(N)c(Cl)c2)cc1Cl | +
Cycasin acetate | +
O=C1c2ccccc2-c2cccc3cccc1c23 [Benzathrone] | -
Nc1cc2c3ccccc3ccc2c2ccccc12 [6-Aminochrysene] | +
Morgan's base | +
Oc1cccc2ccccc12 [1-Naphthol] | -
c1ccc(Nc2ccc3ccccc3c2)cc1 [N-phenyl-2-naphthylamine] | -
c1ccc2c(c1)cc1ccc3cc4ccccc4c4ccc2c1c34 [3,4,9,10-Dibenzpyrene] | +

Molecule | Carcinogenicity, Lit.
CC(C(O)c1ccccc1)N(C)N=O (stereo not shown) [N-Nitrosoephedrine] | +
c1ccc2[nH]cnc2c1 [Benzimidazole] | -
CN(C)c1ccc(N=Nc2ccccc2)cc1 [4-Dimethylaminoazobenzene] | +
Nc1ccccc1C(=O)O [Anthranilic acid] | -
C1CCC(NC2CCCCC2)CC1 [Dicyclohexylamine] | -
O=[N+]([O-])c1ccccc1-c1ccccc1 [2-Nitrobiphenyl] | +
NN [Hydrazine] | +
O=S1(=O)CCCCO1 [Butanesultone] | +
Cc1ccc(O)c(N=Nc2c(O)cc(S(=O)(=O)O)c3ccccc23)c1 [Calmagite] | -
C=CCc1ccc2c(c1)OCO2 [Safrole] | +
c1ccc(-c2ccccc2)cc1 [Biphenyl] | -
O=[N+]([O-])c1ccc(F)c([N+](=O)[O-])c1 [2,4-Dinitrofluorobenzene] | +
c1ccc2ccccc2c1 [Naphthalene] | -
Nc1ccc(-c2ccccc2)cc1 [4-Aminobiphenyl] | +
Cc1ccc2cc3c(ccc4ccccc43)c3c2c1CC3 [20-Methylcholanthrene] | +
CC/C(=C(/CC)c1ccc(O)cc1)c1ccc(O)cc1 [Diethylstilboestrol] | +
Nc1ccccc1 [Aniline] | -
Nc1ccc2ccccc2c1 [2-Naphthylamine] | +
O=C1c2ccccc2C(=O)c2ccccc21 [Anthraquinone] | -
NC1CCCCC1 [Cyclohexylamine] | -

Molecule | Carcinogenicity, Lit.
CC(=O)Nc1ccc2c(c1)Cc1ccccc1-2 [2-Acetylaminofluorene] | +
Clc1ccc(C(c2ccc(Cl)cc2)C(Cl)(Cl)Cl)cc1 [D.D.T.] | -
Cc1cc(-c2ccc(N)c(C)c2)ccc1N [3,3'-Dimethylbenzidine] | +
O=C(O)c1ccccc1 [Benzoic acid] | -
Nc1ccc2c(c1)Cc1cc(N)ccc1-2 [2,7-Diaminofluorene] | +
Croton oil | +
Nc1ccc2c(ccc3c4ccccc4ccc23)c1 [2-Aminochrysene] | +
Nc1ccc2ccc3cccc4ccc1c2c34 [3-Aminopyrene] | +
O=C(O)CCCc1ccc(N(CCCl)CCCl)cc1 [Chlorambucil] | +
COc1cc(-c2ccc(N)c(OC)c2)ccc1N [3,3'-Dimethoxybenzidine] | +
Cc1c2ccccc2c(C)c2ccccc12 [9,10-Dimeuthylanthracene] | +
Nc1ccccc1-c1ccccc1 [2-Aminobiphenyl] | +
CN(C)P(=O)(N(C)C)N(C)C [Hexamethylphosphoramide] | +
c1ccc2cc3ccccc3cc2c1 [Anthracene] | -
ClCOCCl [Bis(Chloromethyl)ether] | +
c1ccc2c(c1)cc1ccc3cccc4ccc2c1c34 [3,4-Benzpyrene] | +
c1cc2cccc3c4cccc5cccc(c(c1)c23)c54 [Perylene] | -
Nc1ccc2ccccc2c1S(=O)(=O)O [2-Aminonaphthalene-1-sulphonic acid] | -
Nc1ccc(-c2ccc(N)cc2)cc1 [Benzidine] | +
Cyanocobalamin [Cyanocobalamin (B12)] | -
